# “Also recorded” adds a separate entry of the source.
# What was measured:
# Format in all cases: in vivo, rat
# CYP-treated rats = assay: Voiding analysis in cyclophosphamide (CYP) cystitis model; settings: CYP (75 mg/kg i.p.) female Sprague Dawley rats; oral 8-AG 5 mg/kg/day starting one week prior to CYP
# Procedure: (§1) Animals: Female Sprague Dawley rats were employed in this example (Charles River; Wilmington, Mass.). Three groups of animals were included. Group 1 received an i.p. injection of saline and was used as a control; groups 2 and 3 received an i.p. injection of cyclophosphamide (CYP, SIGMA-ALDRICH®, St Louis, Mo., day 0, 3, 6, sacrifice day 8, 75 mg/kg, i.p.) with group 3 treated with oral 8-AG (5 mg/kg/day; starting one week prior to CYP). CYP induced bladder inflammation and is a well-established pre-clinical model for BPS/IC.
# Voiding Analysis: Untreated, CYP-treated, and 8-AG-treated CYP rats were placed in metabolic cages (24 hr; once per week) for the duration of the study. The light cycle was from 7:00 AM to 7:00 PM, and food and water were provided ad libitum. […] Data were averaged for 24 h and analyzed for 12-h periods during the day (7:00 AM-7:00 PM) and night (7:00 PM-7:00 AM). Voiding frequency, total voided volume, and volume per void were analyzed. Voiding frequency was calculated as the number of voiding events per hour during 24 hr and during the 12-hr day and 12-hr night periods. Volume per void, which defines bladder capacity, was calculated as an average of the voids occurring during these periods.
# aged rats [1] = assay: Von Frey testing of tactile sensitivity, aged rats
# Procedure: Von Frey testing: Forty-eight hours after metabolism studies, tactile sensitivity was measured (once per week for the duration of the study) using von Frey nylon filaments applied to the suprapubic and plantar hindpaw (Stoelting Co., Wood Dale, Ill., USA). The median 50% withdrawal threshold (using up-down method) with positive responses are recorded as sharp retraction, licking/scratching, or vocalization.
# Von Frey testing: Forty-eight h after the metabolism studies, tactile sensitivity was measured once per week using von Frey nylon filaments (Stoelting Co., Wood Dale, Ill., USA) applied to the suprapublic and plantar hindpaw. The median 50% withdrawal threshold (using an up-down method) with positive responses was recorded as sharp retraction, licking/scratching, or vocalization.
# Von Frey Testing: Forty-eight hr after the metabolic cage studies, tactile sensitivity was measured once per week for the duration of the study using von Frey nylon filaments (Stoelting Co., Wood Dale, Ill., USA) applied to the suprapublic and plantar hindpaw. The withdrawal threshold (using up-down method) was determined, with positive responses defined as sharp retractions, licking/scratching, or vocalizations.
# MCP-1 = assay: RT-qPCR of bladder MCP-1 mRNA in CYP cystitis model; settings: CYP (75 mg/kg i.p.) female Sprague Dawley rats; oral 8-AG 5 mg/kg/day starting one week prior to CYP
# Procedure: as §1
# RT-qPCR: Total RNA was isolated from bladders using TRIZOL® Reagent (THERMO FISHER SCIENTIFIC®; Waltham, Mass.) according to the manufacturer's instructions. The cDNA was synthesized using ISCRIPT™ cDNA synthesis kit (BIO-RAD®). qPCR analysis was performed using Power SYBR™ Green PCR Master Mix (THERMO FISHER SCIENTIFIC®) in the APPLIED BIOSYSTEMS® QUANTSTUDIO™ 3 Real-Time PCR System (THERMO FISHER SCIENTIFIC®). The primers used were as follows: for IL-1beta, 5′-[…]-3′ (forward; SEQ ID NO: 1) and 5′-[…]-3′ (reverse; SEQ ID NO: 2); for MCP-1, 5′-[…]-3′ (forward; SEQ ID NO: 3) and 5′-[…]-3′ (reverse; SEQ ID NO: 4); for β-actin, 5′-ACTCTTCCAGCCTTCCTTC-3′ (forward; SEQ ID NO: 5) and 5′-[…]-3′ (reverse; SEQ ID NO: 6). The threshold cycle (Ct) for target was subtracted from Ct for β-actin to give ΔCt. Results are expressed as 2AC.
# aged rats [2] = assay: Voiding analysis in metabolic cages, aged rats
# [3] = aged Fischer 344 rats, oral 8-AG 5 mg/kg/day, 6 weeks
# [4] = aged Fisher 344 rats, 8-AG 5 mg kg/day via drinking water, 1 month
# [5] = aged rats, intravesical 100 μM 8-AG plus 10 μM DEA-NONOate, daily infusion 3-6 weeks
smiles,measurement,setting,value
"Nc1nc2[nH]c(N)nc2c(=O)[nH]1 [8-AG, 8-Aminoguanine]",intercontraction interval,CYP-treated rats,attenuates
same,voiding frequency,CYP-treated rats,attenuates
same,abdominal response to tactile mechanical stimuli,aged rats [1]; [3],restored to a younger state
same,somatic response to tactile mechanical stimuli,aged rats [1]; [3],restored to a younger state
same,abdominal tactile mechanical sensitivity,aged rats [1]; [4],restored to a younger state; also recorded: reversed
same,somatic tactile mechanical sensitivity,aged rats [1]; [4],restored to a younger state; also recorded: reversed
same,abdominal tactile mechanical sensitivity,aged rats [1]; [5],increase in sensitivity; also recorded: improves
same,somatic tactile mechanical sensitivity,aged rats [1]; [5],increase in sensitivity; also recorded: improves
same,MCP-1 mRNA expression in bladder,MCP-1,suppressed; also recorded: near the detection limit; also recorded: nearly abolished
same,intercontraction interval,aged rats [2]; [3],attenuates
same,intercontraction interval,aged rats [2]; [4],attenuates

# — US20220054494A1, “METHODS FOR TREATING BLADDER AND URETHRA DYSFUNCTION AND DISEASE” (University of Pittsburgh - Of the Commonwealth System of …, priority 2019, published 2022)
